In patent US20060093628A1, “Protein aggregate magnesium-ammonium phospholinoleate-palmitoleate anhydride immonomodulator, its production process and formulation” (priority 2004, published 2006):

Key:
[1] = Toxicity in mice, single doses; assay type: in vivo
Text: (§1) e) In vivo toxicologic properties.

[2] = system: spontaneous mammary carcinoma; test: Transplanted spontaneous mammary carcinoma in WAB/Not mice; assay type: in vivo; conditions: 5.0 mg/kg intraperitoneal, 3 doses per week, 7 weeks
Text: (§2) b) Antitumoral properties through immune response modulation.

[3] = rat, in vivo, ip, 750 mg/kg
Method: The bioavailability of the compound of the present invention was evaluated in Wistar rats by administering a single intraperitoneal dose of 750 mg/kg.

Lysteria monocytogenes [4] = test: Lethal Lysteria monocytogenes infection in Balb/c mice; assay type: in vivo
[5] = Toxicity in Wistar rats, 90 days; assay type: in vivo; conditions: doses up to 100 mg/kg
Text: as §1

plasmacytoma = test: Subcutaneously inoculated plasmacytoma in Balb/c mice; assay type: in vivo; conditions: 5.0 mg/kg intraperitoneal, 3 doses per week, 7 weeks
Text: as §2

[6] = system: granulocyte-macrophage precursor cells in the bone marrow; test: In vitro growth and differentiation of bone marrow granulocyte-macrophage precursor cells; assay type: cell-based; conditions: bone marrow from normal donor Balb/c mice
Lysteria monocytogenes [7] = test: In vitro antibacterial activity; assay type: cell-based
Walker 256 tumoral cells [8] = test: Walker 256 tumor in female Wistar rats; assay type: in vivo; conditions: daily subcutaneous doses of 0.5 mg/kg
[9] = Immunotoxic properties in tufted capuchin monkey; set-up: species or system tufted capuchin monkey (Cebus apella); conditions: in vivo
Method: f) Immunotoxic properties. […] The following organs were analyzed: bone marrow, spleen, lymph nodes, tonsils, and renal gland e Peyer's patch.
The spleen presented an increase of secondary follicles in the white pulp.
However, these cell alterations, found in the anatomopathological examination of the spleen from animals treated with the compound of the present invention, cannot be considered pathological in character; rather, they are due to immune system modulation caused by the use of the compound of the present invention.

[10] = system: parvovirus and distemper virus; test: Treatment of dogs carrying parvovirus and distemper virus; assay type: in vivo
Text: a) Antiviral properties through immune response modulation.

[11] = system: cytokines (IL-2, IFN, IL-4, IL-10); test: Cytokines in ConA-stimulated splenic cell cultures from mice with Ehrlich ascitic tumor; assay type: in vivo, Balb/c mice; conditions: 5.0 mg/kg for 7 days
Method: (§3) Treatment of Balb/c mice, inoculated with Ehrlich ascitic tumor, with 5.0 mg/kg of the compound of the present invention for a period of 7 days was also able to modulate the functional ability of mature immunocompetent cells, supplying additional evidence about the action mechanisms of the compound. This treatment protocol stimulated the proliferative ability of lymphocytes and the cytotoxicity mediated by natural killer (NK) cells.

cytokines (IL-2, IFN) = test: Cytokines in spleen cell cultures from mice infected with L. monocytogenes; assay type: in vivo, Balb/c mice; conditions: pre-treatment with 5.0 mg/kg; culture of spleen cells
Method: Levels of the same cytokines found in Balb/c mice infected with L. monocytogenes and subjected to pre-treatment with 5.0 mg/kg of the compound of the present invention supplied additional information about its biological activity. The increase in production of IL-2 e IFN- by the culture of spleen cells from these animals indicate a modulation of the inflammatory-like response, which is fundamental for eradication of the infection.

[12] = system: lymphocytes and natural killer (NK) cells; test: Functional ability of immunocompetent cells in mice with Ehrlich ascitic tumor; assay type: in vivo, Balb/c mice; conditions: 5.0 mg/kg for 7 days
Method: as §3

[13] = Toxicity in tufted capuchin monkey, 30 days; assay type: in vivo, tufted capuchin monkey (Cebus apella); conditions: doses up to 30 mg/kg
Text: as §1

Ehrlich ascitic tumor = Ehrlich ascitic tumor in Balb/c mice; assay type: in vivo; conditions: 5.0 mg/kg subcutaneous for 7 days
Method: Treatment with doses of 5.0 mg/kg of the compound of the present invention, subcutaneously administered for a period of 7 days to Balb/c mice which had been intraperitoneally inoculated with Ehrlich ascitic tumor inhibited 50% of the tumoral growth and increased by 50% the survival of the animals.

Walker 256 tumoral cells [14] = test: Walker 256 tumor in gamma-irradiated immunodepressed Wistar rats; assay type: in vivo; conditions: rats exposed to 4 Gy gamma radiation, subcutaneous administration
Text: c) Immunomodulatory properties.

[15] = system: 53 tumor cell cultures representing 8 distinct tumor types and leukemia
Text: Cytotoxicity of the compound of the present invention was studied in the range of 10^−4 to 10^−8 M in 53 tumor cell cultures representing 8 distinct tumor types (lung, colon, central nervous system, melanoma, ovary, kidney, prostate and mammary) and leukemia.

[16] = system: granulocyte-macrophage precursor cells (CFU-GM); test: Granulocyte-macrophage precursor cells (CFU-GM) in mice with Ehrlich ascitic tumor; assay type: in vivo, Balb/c mice
[17] = splenic cells stimulated by ConA

Q: With “protein aggregate of ammonium and magnesium phospholinoleate-palmitoleate anhydride [compound of the present invention]” as the substance, how does the toxic effects ([1]; single doses up to 2000 mg/kg) read?
A: Its toxic effects is “No toxic effects”.

Q: What about the “hematological, biochemical, physiological and anatomopathological parameters” value ([1]; stated jointly for the mouse, monkey and rat studies, treated vs control animals) of the same substance?
A: The value was “No significant variation”.

Q: What about the increase in survival [2] of the same substance?
A: Its increase in survival is 50%.

Q: What about the tumoral growth rate [2] of the same substance?
A: The tumoral growth rate was “significant decrease”.

Q: What about the “plasma t1/2” value [3] of the same substance?
A: The value was “about 2 h”.

Q: What about the “mice protected against lethal infection” value (Lysteria monocytogenes [4]; pre-treatment 0.5 mg/kg subcutaneous for 7 days) of the same substance?
A: Its value is 30%.

Q: What about the “mice protected against lethal infection” value (Lysteria monocytogenes [4]; pre-treatment 5.0 mg/kg subcutaneous for 7 days) of the same substance?
A: Its value is 40%.

Q: And the myeloprotection (Lysteria monocytogenes [4]; pre-treatment subcutaneous for 7 days)?
A: The myeloprotection was “promoted myeloprotection”.

Q: And the toxic effects [5]?
A: The toxic effects was “No toxic effects”.

Q: And the increase in survival (plasmacytoma)?
A: The increase in survival was 50%.

Q: And the tumoral growth rate (plasmacytoma)?
A: Its tumoral growth rate is “significant decrease”.

Q: And the “in vitro effects on growth and differentiation of granulocyte-macrophage precursor cells” value [6]?
A: Its value is “did not present in vitro effects”.

Q: What about the “in vitro antibacterial activity” value (Lysteria monocytogenes [7]) of the same substance?
A: Its value is “does not display in vitro antibacterial activity”.

Q: And the “animals with tumoral regression” value (Walker 256 tumoral cells [8])?
A: The value was 50%.

Q: What about the “granulocytic series in the bone marrow” value [9] of the same substance?
A: The value was “slight activation”.

Q: And the hematocrit and hemoglobin [9]?
A: The hematocrit and hemoglobin was “minor decrease”.

Q: What about the immunotoxic properties [9] of the same substance?
A: The immunotoxic properties was “No immunotoxic properties”.

Q: And the lymphocyte population [9]?
A: The lymphocyte population was “small increase”.

Q: What about the “red pulp of the spleen, anatomopathological examination” value [9] of the same substance?
A: The value was “Erytrophagocytosis was visible”.

Q: And the “secondary follicles in the white pulp of the spleen” value [9]?
A: The value was “increase”.

Q: And the “total leucocytes, particularly polymorphonuclear neutrophils” value [9]?
A: Its value is “increase”.

Q: What about the “white blood cell count” value ([10]; blood of treated dogs vs infected controls treated with saline only) of the same substance?
A: Its value is “significant increase”.

Q: And the recovery rate ([10]; dogs carrying parvovirus and distemper virus)?
A: Its recovery rate is “higher recovery rate”.

Q: What about the “interleukin-4 (IL-4) levels” value [11] of the same substance?
A: The value was “No alteration”.

Q: What about the “production of interleukin-10 (IL-10)” value ([11]; mice with tumors) of the same substance?
A: Its value is “significantly reduced”.

Q: What about the “gamma-interferon (IFN-)” value [11, 17] of the same substance?
A: Its value is “significant increase”.

Q: And the “interleukin-2 (IL-2)” value [11, 17]?
A: Its value is “significant increase”.

Q: What about the “production of IFN-” value (cytokines (IL-2, IFN)) of the same substance?
A: The value was “increase”.

Q: What about the “production of IL-2” value (cytokines (IL-2, IFN)) of the same substance?
A: Its value is “increase”.

Q: And the “cytotoxicity mediated by natural killer (NK) cells” value [12]?
A: The value was “stimulated”.

Q: And the “proliferative ability of lymphocytes” value [12]?
A: The value was “stimulated”.

Q: And the toxic effects [13]?
A: Its toxic effects is “No toxic effects”.

Q: And the increase in survival (Ehrlich ascitic tumor)?
A: Its increase in survival is 50%.

Q: What about the “inhibition of tumoral growth” value (Ehrlich ascitic tumor) of the same substance?
A: The value was 50%.

Q: What about the response to treatment (Walker 256 tumoral cells [14]) of the same substance?
A: Its response to treatment is “did not respond”.

Q: And the “cytotoxicity for tumor cells” value [15]?
A: Its value is “did not display cytotoxicity”.

Q: And the “CFU-GM count in the spleen and splenomegalia” value ([16]; 5.0 mg/kg for 7 days)?
A: The value was “significant reduction”.

Q: What about the myelopoiesis modulation ([16]; 5.0 mg/kg for 7 days before or after inoculation) of the same substance?
A: Its myelopoiesis modulation is “particularly efficient”.

Q: And the “number of granulocyte-macrophage precursor cells in the bone marrow (CFU-GM)” value ([16]; 0.5 to 5.0 mg/kg subcutaneous for 7 days)?
A: The value was “dose-dependent increase”.
